From US10201547B2, “Method of treatment of aggression” (Supernus Pharmaceuticals, Inc., priority 2008, dated 2019)

Tests used:
D4.4 = target: T1, D4.4 (Homo sapiens, UniProt P21917); assay: D4.4 displacement assay; type: binding; details: concentration 1.0E−05M
T1 sequence (P21917 1-419): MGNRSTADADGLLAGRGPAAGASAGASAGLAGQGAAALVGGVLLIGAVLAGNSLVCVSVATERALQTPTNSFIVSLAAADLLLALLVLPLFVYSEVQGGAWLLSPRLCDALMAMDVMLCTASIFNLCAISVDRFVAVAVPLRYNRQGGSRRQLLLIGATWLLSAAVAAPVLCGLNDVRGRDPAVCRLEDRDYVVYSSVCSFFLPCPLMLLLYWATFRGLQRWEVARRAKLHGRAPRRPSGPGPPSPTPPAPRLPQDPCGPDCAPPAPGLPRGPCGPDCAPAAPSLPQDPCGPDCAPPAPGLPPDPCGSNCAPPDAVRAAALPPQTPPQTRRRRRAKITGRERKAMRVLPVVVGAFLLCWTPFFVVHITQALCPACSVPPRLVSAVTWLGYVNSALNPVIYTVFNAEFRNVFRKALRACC

D2S(h) [1] = target: T2, D2S(h) (Homo sapiens, UniProt P14416); assay: D2S(h) antagonist effect, cAMP HTRF; type: cell-based
human D5 receptor [2] = target: T3, human D5 receptor (Homo sapiens, UniProt P21918); assay: D5(h) antagonist effect, cAMP HTRF; type: cell-based; details: for Agonist Response % of Control, 1st / Agonist Response % of Control, 2nd / Agonist Response % of Control, Mean: antagonist effect
T3 construct: expressed in transfected cells; host or cells: GH4 cell line
From the text: (§1) The final step of the assay was to characterize whether the binding is of an agonist or antagonist nature. For the D5 receptor, this was accomplished through an assay that examined the agonist effect on the D5 receptor, i.e., the generation of cAMP or the blockade of this effect when stimulated by a D5 agonist, dopamine. This was also done with a range of concentrations to determine the relative agonist vs antagonist binding Ki. The EC50 values (concentration producing a half-maximal specific response) and IC50 values (a concentration causing a half-maximal inhibition of the control-specific agonist response) were determined by non-linear regression analysis of the concentration-response curves generated with mean replicate values using Hill equation curve fitting. The apparent dissociation constants for antagonists Kb were calculated using the modified Cheng Prusoff equation.

human D5 receptor [3] = target: T3, human D5 receptor; assay: D5(h) displacement (radioligand binding) assay, [3H]SCH 23390, recombinant D5 receptors in GH4 cell line
Experimental: A heterologous competition assay was designed for a receptor affinity screening of molindone. Recombinant D5 receptors were expressed in a GH4 cell line and specific binding was characterized by displacement of another molecule with affinity for the D5 receptor (the “ligand”). “Specific binding” refers here to the difference in the binding of the ligand to the receptors in the presence and absence of an excess of the active agent. An initial screen was performed with […] molindone.
The affinity of molindone for the D5 receptor was further characterized by determining the IC50, or concentration that inhibits 50% of control specific binding. For this experiment, a range of molindone concentrations was selected for the ligand blocking assay. The IC50 was determined using non-linear regression analysis of the competition curves using Hill equation curve fitting. The inhibition constants Ki, wherein Ki is defined as the concentration of the competing ligand (molindone) that will bind to half the binding sites at equilibrium in the absence of radioligand or other competitors, were calculated using Cheng Prusoff equation.

human D5 receptor [4] = target: T3, human D5 receptor; assay: D5(h) agonist effect, cAMP HTRF; type: cell-based; details: control 10 μM dopamine
From the text: as §1

[5] = Randomized, multicenter, parallel group dose-ranging study in children with ADHD and persistent serious conduct problems; type: in vivo, human; design: NCBRF-TIQ Conduct Problem Subscale Score, Visit 12 Mean / Mean Reduction from Baseline in NCBRF-TIQ Conduct Problem Subscale Score: scale not given here; details: for NCBRF-TIQ Conduct Problem Subscale Score, Visit 12 Mean: 6 weeks at target dose
Experimental: Effectiveness, safety and tolerability of molindone was evaluated in a randomized, multicenter, parallel group dose-ranging study in children with ADHD and persistent serious conduct problems. Subjects were randomized based on weight at baseline to 1 of 4 treatment groups. The dosing for subjects with weight of less than 30 kg was initiated at 1.67 mg/day and 3.34 mg/day for subjects weighing 30 kg or more. A titration schedule was followed until the target dose (Treatment group 1, 2, 3 or 4) was reached. Subjects remained at target dose for 6 weeks (Table 9). [table]

D2S(h) [6] = target: T2, D2S(h); assay: D2S(h) displacement (radioligand binding) assay, [3H]spiperone
[7] = D5(h), test concentration 1.0E−04 M, dopamine 100 nM
[8] = D5(h), test concentration 1.0E−05 M, dopamine 100 nM
[9] = D5(h), test concentration 1.0E−06 M, dopamine 100 nM
[10] = D5(h), test concentration 1.0E−07 M, dopamine 100 nM
[11] = D5(h), test concentration 2.0E−05 M, dopamine 100 nM
[12] = D5(h), test concentration 3.0E−06 M, dopamine 100 nM
[13] = D5(h), test concentration 3.0E−07 M, dopamine 100 nM
[14] = D5(h), test concentration 5.0E−05 M, dopamine 100 nM

T3 sequence (P21918 whole entry): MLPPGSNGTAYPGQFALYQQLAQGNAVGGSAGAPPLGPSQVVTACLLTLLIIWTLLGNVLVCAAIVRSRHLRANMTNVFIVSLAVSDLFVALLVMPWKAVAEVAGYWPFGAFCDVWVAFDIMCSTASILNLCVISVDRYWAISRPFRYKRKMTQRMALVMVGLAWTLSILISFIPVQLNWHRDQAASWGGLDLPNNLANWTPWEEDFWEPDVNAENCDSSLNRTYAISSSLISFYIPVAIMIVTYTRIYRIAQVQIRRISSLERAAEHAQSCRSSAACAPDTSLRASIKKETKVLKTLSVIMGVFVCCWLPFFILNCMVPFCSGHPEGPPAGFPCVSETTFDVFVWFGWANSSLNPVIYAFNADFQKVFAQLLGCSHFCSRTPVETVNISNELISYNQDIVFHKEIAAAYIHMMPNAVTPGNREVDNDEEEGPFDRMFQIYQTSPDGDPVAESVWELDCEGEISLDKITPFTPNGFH
T2 sequence (P14416 1-414 isoform P14416-2): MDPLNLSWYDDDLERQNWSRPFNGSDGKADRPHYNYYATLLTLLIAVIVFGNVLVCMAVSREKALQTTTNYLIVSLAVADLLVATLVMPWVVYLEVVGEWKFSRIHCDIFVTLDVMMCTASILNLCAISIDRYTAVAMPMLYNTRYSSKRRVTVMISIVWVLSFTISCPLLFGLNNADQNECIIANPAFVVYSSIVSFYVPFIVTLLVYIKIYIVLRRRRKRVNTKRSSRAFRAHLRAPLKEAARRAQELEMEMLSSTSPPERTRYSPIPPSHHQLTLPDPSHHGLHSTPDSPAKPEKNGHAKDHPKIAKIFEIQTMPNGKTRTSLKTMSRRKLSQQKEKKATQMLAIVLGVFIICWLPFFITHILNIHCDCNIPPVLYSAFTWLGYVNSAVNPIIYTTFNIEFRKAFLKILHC

CCc1c(C)[nH]c2c1C(=O)C(CN1CCOCC1)CC2 (stereo not drawn) [molindone]
% Inhibition of control specific binding (D4.4): 38%
IC50 (D2S(h) [1]; dopamine 30 nM): 0.068 µM
Kb (D2S(h) [1]; modified Cheng Prusoff): 0.0047 µM
IC50 (human D5 receptor [2]; D5(h), dopamine 100 nM): 5.3 µM
Kb (human D5 receptor [2]; D5(h), modified Cheng Prusoff): 0.92 µM
nature of the binding/activity at the D5 receptor (agonist or antagonist) (human D5 receptor [2]; D5 receptor, cAMP): specific antagonist activity
Agonist Response % of Control, 1st (human D5 receptor [2]; [7]): 7%
Agonist Response % of Control, 2nd (human D5 receptor [2]; [7]): 4%
Agonist Response % of Control, Mean (human D5 receptor [2]; [7]): 5.6%
Agonist Response % of Control, 1st (human D5 receptor [2]; [8]): 40%
Agonist Response % of Control, 2nd (human D5 receptor [2]; [8]): 36%
Agonist Response % of Control, Mean (human D5 receptor [2]; [8]): 38.4%
Agonist Response % of Control, 1st (human D5 receptor [2]; [9]): 98%
Agonist Response % of Control, 2nd (human D5 receptor [2]; [9]): 95%
Agonist Response % of Control, Mean (human D5 receptor [2]; [9]): 96.4%
Agonist Response % of Control, 1st (human D5 receptor [2]; [10]): 107%
Agonist Response % of Control, 2nd (human D5 receptor [2]; [10]): 115%
Agonist Response % of Control, Mean (human D5 receptor [2]; [10]): 111.0%
Agonist Response % of Control, 1st (human D5 receptor [2]; [11]): 19%
Agonist Response % of Control, 2nd (human D5 receptor [2]; [11]): 20%
Agonist Response % of Control, Mean (human D5 receptor [2]; [11]): 19.6%
Agonist Response % of Control, 1st (human D5 receptor [2]; [12]): 67%
Agonist Response % of Control, 2nd (human D5 receptor [2]; [12]): 66%
Agonist Response % of Control, Mean (human D5 receptor [2]; [12]): 66.7%
Agonist Response % of Control, 1st (human D5 receptor [2]; [13]): 90%
Agonist Response % of Control, 2nd (human D5 receptor [2]; [13]): 95%
Agonist Response % of Control, Mean (human D5 receptor [2]; [13]): 92.9%
Agonist Response % of Control, 1st (human D5 receptor [2]; [14]): 4%
Agonist Response % of Control, 2nd (human D5 receptor [2]; [14]): 11%
Agonist Response % of Control, Mean (human D5 receptor [2]; [14]): 7.3%
IC50 (human D5 receptor [3]; D5 binding): 5.2 µM
n(H) (human D5 receptor [3]; D5 binding, Hill equation curve fitting): 1.2
Ki (human D5 receptor [3]; D5 receptor): 2.4 µM
inhibition at 10 pM (human D5 receptor [3]; molindone 10^−5 μM, read-out: inhibition of the SCH23390 binding at the D5 receptor): 59%
Agonist Response % of Control, 1st (human D5 receptor [4]; test concentration 1.0E−04 M): 1%
Agonist Response % of Control, 2nd (human D5 receptor [4]; test concentration 1.0E−04 M): 4%
Agonist Response % of Control, Mean (human D5 receptor [4]; test concentration 1.0E−04 M): 2.1%
Agonist Response % of Control, 1st (human D5 receptor [4]; test concentration 1.0E−05 M): −1%
Agonist Response % of Control, 2nd (human D5 receptor [4]; test concentration 1.0E−05 M): 2%
Agonist Response % of Control, Mean (human D5 receptor [4]; test concentration 1.0E−05 M): 0.6%
Agonist Response % of Control, 1st (human D5 receptor [4]; test concentration 1.0E−06 M): 0%
Agonist Response % of Control, 2nd (human D5 receptor [4]; test concentration 1.0E−06 M): 0%
Agonist Response % of Control, Mean (human D5 receptor [4]; test concentration 1.0E−06 M): 0.1%
Agonist Response % of Control, 1st (human D5 receptor [4]; test concentration 1.0E−07 M): 2%
Agonist Response % of Control, 2nd (human D5 receptor [4]; test concentration 1.0E−07 M): 2%
Agonist Response % of Control, Mean (human D5 receptor [4]; test concentration 1.0E−07 M): 2.1%
Agonist Response % of Control, 1st (human D5 receptor [4]; test concentration 2.0E−05 M): −2%
Agonist Response % of Control, 2nd (human D5 receptor [4]; test concentration 2.0E−05 M): 2%
Agonist Response % of Control, Mean (human D5 receptor [4]; test concentration 2.0E−05 M): 0.2%
Agonist Response % of Control, 1st (human D5 receptor [4]; test concentration 3.0E−06 M): 3%
Agonist Response % of Control, 2nd (human D5 receptor [4]; test concentration 3.0E−06 M): 4%
Agonist Response % of Control, Mean (human D5 receptor [4]; test concentration 3.0E−06 M): 3.3%
Agonist Response % of Control, 1st (human D5 receptor [4]; test concentration 3.0E−07 M): 4%
Agonist Response % of Control, 2nd (human D5 receptor [4]; test concentration 3.0E−07 M): −1%
Agonist Response % of Control, Mean (human D5 receptor [4]; test concentration 3.0E−07 M): 1.8%
Agonist Response % of Control, 1st (human D5 receptor [4]; test concentration 5.0E−05 M): 1%
Agonist Response % of Control, 2nd (human D5 receptor [4]; test concentration 5.0E−05 M): −2%
Agonist Response % of Control, Mean (human D5 receptor [4]; test concentration 5.0E−05 M): −0.7%
NCBRF-TIQ Conduct Problem Subscale Score, Visit 12 Mean ([5]; Treatment 1: 5 mg/day (<30 kg), 10 mg/day (≥30 kg)): 13.40
Mean Reduction from Baseline in NCBRF-TIQ Conduct Problem Subscale Score ([5]; Treatment 1: 5 mg/day (<30 kg), 10 mg/day (≥30 kg), baseline mean 20.35): 6.95
NCBRF-TIQ Conduct Problem Subscale Score, Visit 12 Mean ([5]; Treatment 2: 10 mg/day (<30 kg), 20 mg/day (≥30 kg)): 17.00
Mean Reduction from Baseline in NCBRF-TIQ Conduct Problem Subscale Score ([5]; Treatment 2: 10 mg/day (<30 kg), 20 mg/day (≥30 kg), baseline mean 25.74): 8.74
NCBRF-TIQ Conduct Problem Subscale Score, Visit 12 Mean ([5]; Treatment 3: 15 mg/day (<30 kg), 30 mg/day (≥30 kg)): 17.79
Mean Reduction from Baseline in NCBRF-TIQ Conduct Problem Subscale Score ([5]; Treatment 3: 15 mg/day (<30 kg), 30 mg/day (≥30 kg), baseline mean 26.00): 8.21
NCBRF-TIQ Conduct Problem Subscale Score, Visit 12 Mean ([5]; Treatment 4: 20 mg/day (<30 kg), 40 mg/day (≥30 kg)): 11.65
Mean Reduction from Baseline in NCBRF-TIQ Conduct Problem Subscale Score ([5]; Treatment 4: 20 mg/day (<30 kg), 40 mg/day (≥30 kg), baseline mean 25.95): 14.30
Side effects ([5]; all four treatment groups): mild, self-limiting and within the limits of tolerability
discontinuation because of side effects ([5]; all four treatment groups): no subjects discontinued the study because of the side effects
efficacy signal towards reducing Conduct Problem Subscale scores ([5]; children with ADHD and persistent serious conduct problems): statistically significant efficacy signal
Ki (D2S(h) [6]; D2s binding, Cheng Prusoff, read-out: K1): 0.017 µM
n(H) (D2S(h) [6]; D2s binding, Hill equation curve fitting): 1.7
% Inhibition of control specific binding (D2S(h) [6]; D2s, concentration 1.0E−05M): 98%
